Experimental data as given in publication PMC5418449, “Characterisation of CCT271850, a selective, oral and potent MPS1 inhibitor, used to directly measure in vivo MPS1 inhibition vs therapeutic efficacy” (British Journal of Cancer, 2017).
Read-outs that look alike come from different tables or passages of the source.

Legend:
[1] = test system: HN6; parameters: clonogenic colony formation assay, growth inhibition IC50; conditions: 14-day clonogenic; read-out: Table S1. IC50 of CCT271850 determined by MTT and clonogenic assays (CA). / All cell lines were tested at least 2 times. / 14-day CA
Method: (§1) To evaluate CCT271850 antiproliferation effects in a large panel of human cancer cell lines, 91 cell lines were treated for 72 h and 14 days at different compound concentrations in growth inhibition assays. The growth inhibition values as measured by IC50 are summarised in Table 2 and Supplementary Table S1. […] Cell lines from colon and head and neck cancers were among the most sensitive.

[2] = test system: TYK-Nu; parameters: 14-day clonogenic growth inhibition assay, human cancer cell line panel; conditions: 14-day clonogenic assay; inhibitor; read-out: Table S1. IC50 of CCT271850 determined by MTT and clonogenic assays (CA). / All cell lines were tested at least 2 times. / 14-day CA
Method: as §1

[3] = test system: SKOV3; parameters: 14-day clonogenic growth inhibition assay, human cancer cell line panel; conditions: 14-day clonogenic assay; inhibitor; read-out: Table S1. IC50 of CCT271850 determined by MTT and clonogenic assays (CA). / All cell lines were tested at least 2 times. / 14-day CA
Method: as §1

[4] = test system: PJ41; parameters: 14-day clonogenic growth inhibition assay, human cancer cell line panel; conditions: 14-day clonogenic assay; inhibitor; read-out: Table S1. IC50 of CCT271850 determined by MTT and clonogenic assays (CA). / All cell lines were tested at least 2 times. / 14-day CA
Method: as §1

[5] = test system: Det562; parameters: MTT antiproliferation assay, absorbance at 570 nm, human cancer cell line panel; conditions: 3-day MTT; inhibitor; read-out: Table S1. IC50 of CCT271850 determined by MTT and clonogenic assays (CA). / All cell lines were tested at least 2 times. / 3-day MTT
Method: (§2) Cell lines were obtained from the American Type Culture Collection and grown in their recommended culture medium, supplemented with 10% FBS at 37 °C in 5% CO2. In-house authentication of cell lines by SNP profiling was carried out and cultured cells were passaged for less than 6 months before replacement from early-passage frozen stocks. Cells were regularly screened for Mycoplasma, using a PCR-based assay (VenorGem; Minerva Biolabs, Berlin, Germany). Transfections were carried out at ∼80% confluency with the plasmids indicated, using Lipofectamine LTX (15338030, Life Technologies, Carlsbad, CA, USA) according to the manufacturer's instructions. Cell proliferation assays were carried out by colorimetric MTT method (Sigma, St Louis, MO, USA) as described elsewhere ([Mosmann, 1983]). Briefly, cells were plated in 96-well plates at 2000–5000 cells per well (depending on the cell line) followed by treatment with two-fold dilutions of 0–25 μM drug for 72 h. Absorbance was measured at 570 nm with the Wallac VICTOR2 1420 Multilabel Counter (PerkinElmer, Waltham, MA, USA). To evaluate CCT271850 antiproliferation effects in a large panel of human cancer cell lines, 91 cell lines were treated for 72 h and 14 days at different compound concentrations in growth inhibition assays. The growth inhibition values as measured by IC50 are summarised in Table 2 and Supplementary Table S1. […] Cell lines from colon and head and neck cancers were among the most sensitive.

[6] = test system: EF027; parameters: MTT antiproliferation assay, absorbance at 570 nm, human cancer cell line panel; conditions: 3-day MTT; inhibitor; read-out: Table S1. IC50 of CCT271850 determined by MTT and clonogenic assays (CA). / All cell lines were tested at least 2 times. / 3-day MTT
Method: as §2

[7] = test system: SW626; parameters: MTT antiproliferation assay, absorbance at 570 nm, human cancer cell line panel; conditions: 3-day MTT; inhibitor; read-out: Table S1. IC50 of CCT271850 determined by MTT and clonogenic assays (CA). / All cell lines were tested at least 2 times. / 3-day MTT
Method: as §2

[8] = test system: HN6; parameters: MTT antiproliferation assay, absorbance at 570 nm, human cancer cell line panel; conditions: 3-day MTT; inhibitor; read-out: Table S1. IC50 of CCT271850 determined by MTT and clonogenic assays (CA). / All cell lines were tested at least 2 times. / 3-day MTT
Method: as §2

[9] = test system: AspC-1; parameters: MTT antiproliferation assay, absorbance at 570 nm, human cancer cell line panel; conditions: 3-day MTT; inhibitor; read-out: Table S1. IC50 of CCT271850 determined by MTT and clonogenic assays (CA). / All cell lines were tested at least 2 times. / 3-day MTT
Method: as §2

[10] = test system: Capan-2; parameters: MTT antiproliferation assay, absorbance at 570 nm, human cancer cell line panel; conditions: 3-day MTT; inhibitor; read-out: Table S1. IC50 of CCT271850 determined by MTT and clonogenic assays (CA). / All cell lines were tested at least 2 times. / 3-day MTT
Method: as §2

[11] = test system: OAW28; parameters: MTT antiproliferation assay, absorbance at 570 nm, human cancer cell line panel; conditions: 3-day MTT; inhibitor; read-out: Table S1. IC50 of CCT271850 determined by MTT and clonogenic assays (CA). / All cell lines were tested at least 2 times. / 3-day MTT
Method: as §2

[12] = test system: HN3; parameters: MTT antiproliferation assay, absorbance at 570 nm, human cancer cell line panel; conditions: 3-day MTT; inhibitor; read-out: Table S1. IC50 of CCT271850 determined by MTT and clonogenic assays (CA). / All cell lines were tested at least 2 times. / 3-day MTT
Method: as §2

[13] = test system: Suit-2; parameters: MTT antiproliferation assay, absorbance at 570 nm, human cancer cell line panel; conditions: 3-day MTT; inhibitor; read-out: Table S1. IC50 of CCT271850 determined by MTT and clonogenic assays (CA). / All cell lines were tested at least 2 times. / 3-day MTT
Method: as §2

[14] = test system: IGROV1; parameters: MTT antiproliferation assay, absorbance at 570 nm, human cancer cell line panel; conditions: 3-day MTT; inhibitor; read-out: Table S1. IC50 of CCT271850 determined by MTT and clonogenic assays (CA). / All cell lines were tested at least 2 times. / 3-day MTT
Method: as §2

[15] = test system: RMG1; parameters: MTT antiproliferation assay, absorbance at 570 nm, human cancer cell line panel; conditions: 3-day MTT; inhibitor; read-out: Table S1. IC50 of CCT271850 determined by MTT and clonogenic assays (CA). / All cell lines were tested at least 2 times. / 3-day MTT
Method: as §2

[16] = test system: PATU-8988T; parameters: MTT antiproliferation assay, absorbance at 570 nm, human cancer cell line panel; conditions: 3-day MTT; inhibitor; read-out: Table S1. IC50 of CCT271850 determined by MTT and clonogenic assays (CA). / All cell lines were tested at least 2 times. / 3-day MTT
Method: as §2

[17] = test system: PATU-8902; parameters: MTT antiproliferation assay, absorbance at 570 nm, human cancer cell line panel; conditions: 3-day MTT; inhibitor; read-out: Table S1. IC50 of CCT271850 determined by MTT and clonogenic assays (CA). / All cell lines were tested at least 2 times. / 3-day MTT
Method: as §2

[18] = test system: OVCAR5; parameters: MTT antiproliferation assay, absorbance at 570 nm, human cancer cell line panel; conditions: 3-day MTT; inhibitor; read-out: Table S1. IC50 of CCT271850 determined by MTT and clonogenic assays (CA). / All cell lines were tested at least 2 times. / 3-day MTT
Method: as §2

[19] = test system: Lon-HN5; parameters: MTT antiproliferation assay, absorbance at 570 nm, human cancer cell line panel; conditions: 3-day MTT; inhibitor; read-out: Table S1. IC50 of CCT271850 determined by MTT and clonogenic assays (CA). / All cell lines were tested at least 2 times. / 3-day MTT
Method: as §2

[20] = test system: CFPAC-1; parameters: MTT antiproliferation assay, absorbance at 570 nm, human cancer cell line panel; conditions: 3-day MTT; inhibitor; read-out: Table S1. IC50 of CCT271850 determined by MTT and clonogenic assays (CA). / All cell lines were tested at least 2 times. / 3-day MTT
Method: as §2

[21] = test system: OVCAR8; parameters: MTT antiproliferation assay, absorbance at 570 nm, human cancer cell line panel; conditions: 3-day MTT; inhibitor; read-out: Table S1. IC50 of CCT271850 determined by MTT and clonogenic assays (CA). / All cell lines were tested at least 2 times. / 3-day MTT
Method: as §2

[22] = test system: SMOV2; parameters: MTT antiproliferation assay, absorbance at 570 nm, human cancer cell line panel; conditions: 3-day MTT; inhibitor; read-out: Table S1. IC50 of CCT271850 determined by MTT and clonogenic assays (CA). / All cell lines were tested at least 2 times. / 3-day MTT
Method: as §2

[23] = test system: PJ34; parameters: MTT antiproliferation assay, absorbance at 570 nm, human cancer cell line panel; conditions: 3-day MTT; inhibitor; read-out: Table S1. IC50 of CCT271850 determined by MTT and clonogenic assays (CA). / All cell lines were tested at least 2 times. / 3-day MTT
Method: as §2

[24] = test system: PA-1; parameters: MTT antiproliferation assay, absorbance at 570 nm, human cancer cell line panel; conditions: 3-day MTT; inhibitor; read-out: Table S1. IC50 of CCT271850 determined by MTT and clonogenic assays (CA). / All cell lines were tested at least 2 times. / 3-day MTT
Method: as §2

- IC50 [3]: 58 nM
- IC50 [7]: 4210 nM
- IC50 [9]: 2400 nM
- IC50 [18]: 730 nM
- IC50 [21]: 1230 nM
SMILES: COc1cc(-c2cnn(C)c2)ccc1Nc1ncc2ccnc(N[C@@H](C)C(C)(C)C)c2n1 [34h, CCT271850]
- IC50 [1]: 15000 nM
- IC50 [2]: 73 nM
- IC50 [4]: 0.8 nM
- IC50 [5]: 1310 nM
- IC50 [6]: 787 nM
- IC50 [8]: 330 nM
- IC50 [10]: 1550 nM
- IC50 [11]: 1020 nM
- IC50 [12]: 845 nM
- IC50 [13]: 435 nM
- IC50 [14]: 3590 nM
- IC50 [15]: 111 nM
- IC50 [16]: 665 nM
- IC50 [17]: 510 nM
- IC50 [19]: 325 nM
- IC50 [20]: 910 nM
- IC50 [22]: 795 nM
- IC50 [23]: 1120 nM
- IC50 [24]: 2250 nM
